Experimental data published in patent publication US11504349B2, “Composition for preventing or treating TNF-related diseases, containing novel derivative as active ingredient, and method for inhibiting TNF activity by using same” (ILAB, priority 2017, dated 2022).

Legend:
BALB/c mice = experiment: In vivo TNF neutralization assay (TNF/D-galactosamine-induced lethality); parameters: species or system mouse; settings: 3.3, 16.5 mpk PO 30 minutes before challenge; 24 hours; concentration-dependent
Experimental: Treatment with TNF and a sensitizer D-galactosamine in an in vivo mouse model leads to death from acute liver failure. Thus, the compound of Example 61 (3.3 mpk or 16.5 mpk) was orally administered to BALB/c mice, and after 30 minutes, the mice were IP treated with the mixture of D-galactosamine (21 mg/mouse) and TNF (0.3 μg/mouse). Survival rates were observed and recorded every 3 hours up to 24 hours, and statistically analyzed by log-rank (Mantel-Cox) test using Prism 6 (GraphPad) (N=13/group, **P<0.005, ***P<0.001). mpk, mg/kg). This confirmed that the in vivo neutralization activity of the compounds binding to TNF in a TNF-induced lethality model.

DBA/1 mice = experiment: Therapeutic effect on rheumatoid arthritis, CIA mouse model; type: in vivo
Experimental: The CIA mouse model is a model in which arthritis is induced by collagen in DBA/1 mice. Thus, a 1:1 mixture of collagen type 2 and CFA was intradermally (ID) injected into the base of the tail of 8-week old DBA/1 mice. Two weeks after the primary immunization, a 1:1 mixture of collagen type 2 and IFA was intradermally (ID) injected into the base of the tail. After the second immunization, the pathology was measured twice a week, and the groups were divided equally so that the mean of the pathology of each group was 4 points. From Day 35 after the primary immunization, etanercept (4.5 mpk), adalimumab (1.2 mpk), the compound of Example 61 (25 mpk, 50 mpk, or 100 mpk) were orally administered three times a week, and the pathology was measured and recorded. The pathology score was measured as 1=inflammation and swelling of one toe, 2=inflammation of one or more toes or weak swelling of the whole sole of the foot, 3=severe swelling of the whole sole of the foot and swelling of ankle, 4=very severe inflammation and swelling of the whole foot or the bending and stiffness of foot (N=7 to 9/group, *P<0.01, **P<0.005, ***P<0.001).

etanercept = etanercept (Homo sapiens, UniProt P20333); experiment: SPR binding to etanercept; settings: FIG. 2c
TNF = TNF (Homo sapiens, UniProt P01375); experiment: SPR (Biacore T200) direct binding to immobilized TNF; settings: TNF immobilized on CM5 chip, read-out: binding affinity (KD)
Experimental: The binding kinetics of TNF and 4-benzopyranone derivative compounds was measured by Surface Plasmon Resonance (SPR) method. First, based on the results of pH scouting (10 mM acetate buffer, pH 4.0, 4.5, 5.0, and 5.5), the appropriate buffer pH was determined, and then the recombinant TNF was immobilized on the CM5 chip (4000-5000 RU). In order to correct an effect of DMSO, a solvent correction standard was then prepared, and DMSO was added to the HBS-EP+ buffer (GE) in an amount of 5%. Then, the 4-benzopyranone derivative compounds were prepared depending on concentration, flowed into the chip (20 μl/min, 500 s), and dissolved (500 s), and the results of sensorgram were analyzed by a dedicated program to determine the affinity value (KD). At this time, the running buffer was HBS-EP+ buffer (GE), the regeneration buffer was 10 mM glycine (pH 2.5), and Biacore T200 (GE) was used as an analyzer.

TNF-overexpressing mice = experiment: Therapeutic effect on rheumatoid arthritis, TNF-overexpressing mouse model; type: in vivo
Experimental: First, until the mean level of arthritis of TNF-overexpres sing mice reached 8, the mice were raised. As such, etanercept (4.5 mpk), adalimumab (1.2 mpk), the compound of Example 61 (25 mpk, 50 mpk, or 100 mpk) were orally administered to the mice with rheumatoid arthritis from Week 15 to Week 23, three times a week, and the pathology was measured and recorded from Week 7 to Week 23 (N=5 to 6/group, *P<0.01, **P<0.005, ***P<0.001).

biotinylated TNF = molecular target: T1, biotinylated TNF (Homo sapiens, UniProt P01375); experiment: Flow cytometry: binding of biotinylated TNF to Raw 264.7 cells; type: cell-based, mouse; settings: compound 800, 200, 5 μM, FACS, FIG. 3a
T1 construct: purchased R&D Systems NFTAO
Experimental: First, macrophage Raw 264.7 cells were prepared (4×10^6 cells/ml), and the biotinylated TNF alone or in combination with the 4-benzopyranone derivative compound (800, 200, 5 μM) was added to the cells and reacted (30 min, 4° C.). 10 μl of avidin-FITC reagent was then added and reacted in the dark (30 min, 4° C.). After washing with RDF1 buffer, FACS analysis was carried out (BD Canto). Human TNF-alpha Biotinylated Fluorokine Flow Cytometry Kit (Cat #: NFTAO) of R&D Systems was used in the experiment.

NF-kB p65 = experiment: Western blot: TNF-induced NF-kB p65 nuclear migration in LM cells; type: cell-based, mouse; settings: TNF 50 ng/ml, 1 hour, compound at about 25 μM
Experimental: First, LM cells was treated with TNF alone (50 ng/ml) or a mixture of TNF and the compound of Example 61 (0, 10, 25, 50 μM) for 1 hour, and then the cells were washed and prepared. After the cytoplasmic fraction and nuclear fraction were separated/obtained using NE-PER nuclear and cytoplasmic extraction reagents (Thermo Scientific, cat #78833), NF-kB p65 protein was detected by SDS-PAGE and Western Blot. Anti-NF-κB p65 rabbit monoclonal antibody (Cell Signaling Technology, cat #D14E12) was used as a primary antibody, and goat anti-rabbit HRP-conjugated antibody (Invitrogen, cat #656120) was used as a secondary antibody. As a Western Blot control protein (housekeeping protein), GAPDH was used in the cytoplasmic fraction, and Lamin B1 was used in the nuclear fraction. Anti-GAPDH mouse monoclonal antibody (GenScript, cat #A01622) was used as a primary antibody of GAPDH, and goat anti-mouse HRP-conjugated antibody (BETHYLlaboratories, cat #A90-116P) was used as a secondary antibody. Anti-Lamin-B1 rabbit monoclonal antibody (Cell Signaling Technology, cat #12586S) was used as a primary antibody of Lamin B1, and anti-rabbit HRP-conjugated antibody (Invitrogen, cat #656120) was used as a secondary antibody.

etanercept, sequence (P20333 with tags, fused parts or gaps limits assumed): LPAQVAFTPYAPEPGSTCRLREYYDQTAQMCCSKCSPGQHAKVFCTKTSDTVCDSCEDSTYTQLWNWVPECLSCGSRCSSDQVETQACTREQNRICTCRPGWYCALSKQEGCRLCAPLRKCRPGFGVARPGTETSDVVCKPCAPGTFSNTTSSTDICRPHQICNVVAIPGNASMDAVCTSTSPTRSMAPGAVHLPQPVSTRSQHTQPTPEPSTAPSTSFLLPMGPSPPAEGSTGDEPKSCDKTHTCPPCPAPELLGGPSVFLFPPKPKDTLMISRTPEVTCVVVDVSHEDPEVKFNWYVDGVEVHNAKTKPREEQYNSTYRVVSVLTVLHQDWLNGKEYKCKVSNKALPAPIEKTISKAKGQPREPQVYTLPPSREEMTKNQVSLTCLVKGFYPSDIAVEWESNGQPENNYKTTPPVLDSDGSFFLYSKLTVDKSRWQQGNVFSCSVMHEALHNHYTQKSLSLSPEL
TNF, sequence (P01375 77-233 limits assumed): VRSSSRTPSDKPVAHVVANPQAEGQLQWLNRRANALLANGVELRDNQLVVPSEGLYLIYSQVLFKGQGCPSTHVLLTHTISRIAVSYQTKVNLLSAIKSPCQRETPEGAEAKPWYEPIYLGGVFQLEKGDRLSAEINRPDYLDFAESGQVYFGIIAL
T1 sequence (P01375 77-233 limits assumed): as above

## O=C(O)c1c(-c2cc(F)ccc2F)oc2cc(Cl)ccc2c1=O [Example 61, 2-(2,5-difluorophenyl)-3-carboxy-7-chloro-(4H)-4-benzopyranone]
BALB/c mice
  death of mice due to acute hepatotoxicity induced by D-galactosamine and TNF: inhibited
DBA/1 mice; 25, 50 and 100 mpk PO three times a week, vs negative control
  therapeutic effect on rheumatoid arthritis (pathology score): remarkable therapeutic effect
DBA/1 mice; 25 mpk
  effect in comparison with etanercept: non-inferior effect
  efficacy in comparison with tofacitinib (25 mpk): considerably similar efficacy
etanercept
  binding to etanercept: did not bind to etanercept
TNF
  Kd: 1.44 µM
TNF-overexpressing mice; 25, 50 and 100 mpk PO, three times a week, Week 15 to 23, vs negative control
  therapeutic effect on rheumatoid arthritis (pathology score): remarkable therapeutic effect
TNF-overexpressing mice; 50 and 100 mpk PO, adalimumab 1.2 mpk, etanercept 4.5 mpk
  effect in comparison with adalimumab and etanercept: non-inferior effect
Biotinylated TNF
  inhibitory activity against TNF-cell binding: decreased the target cell binding of TNF to the basal level in a concentration-dependent manner
NF-kB p65
  migration of NF-kB from the cytoplasm to the nucleus activated by TNF: almost completely inhibited
